Data published in patent US7038014B2, “Polycation-sensing receptor in aquatic species and methods of use thereof” (Brigham and Women's Hospital, priority 1996, dated 2006).
Several values for one entry are separate records, joined by “and”; a condition that tells them apart may be missing. Equal entries are not always repeated. Where two headings read alike, the source gives them in different places.

Key:
SKCaR (SEQ ID NO.: 2) = assay: FURA 2 intracellular calcium assay of SKCaR activation in transfected HEK cells; format: cell-based, dogfish shark (Squalus acanthias)
Description: SKCaR cDNA (SEQ ID NO.: 1) was ligated into the mammalian expression vector PCDNA II and transfected into HEK cells using standard techniques. The presence of SKCaR protein (SEQ ID NO.: 2) in transfected cells was verified by western blotting. Activation of SKCaR (SEQ ID NO.: 2) by extracellular Ca2+, Mg2+ or NaCl was quantified using a well characterized FURA 2 based assay where increases in intracellular Ca2+ produced by SKCaR activation are detected using methodology published previously the Dr. E. Brown's laboratory (Bai, M., S. Quinn, S. Trvedi, O. Kifor, S. H. S. Pearce, M. R. Pollack, K. Krapcho, S. C. Hebert and E. M. Brown. Expression and characterization of inactivating and activating mutations in the human Ca2+-sensing receptor. J. Biol. Chem., 32:19537–19545 (1996)) and expressed as % normalized intracellular calcium response to receptor activation.

[1] = test system: isolated urinary bladder of winter flounder (PVCR; thiazide-sensitive NaCl cotransporter); assay: Water reabsorption (Jv) in isolated winter flounder urinary bladder, gravimetric; format: cell-based, winter flounder (Pseudopleuronectes americanus); conditions: for water reabsorption (Jv): control Jv 130±28; for inhibition of water reabsorption: application of agent, concentration not stated (summary); for IC50: read-out: half maximal inhibitory concentration for urinary bladder Jv (IC50); for reversibility of inhibitory effect on Jv: upon removal of agonist
Method: To provide further evidence linking Aquatic PVCRs to fish osmoregulation, isolated urinary bladder of winter founder was used to investigate whether PVCRs modulate epithelial cell ion transport. […] Water reabsorption from the urine stored in urinary bladder allows for the concentrations of both Mg^2+ and Ca^2+ to increase to values as high as 84 mM and 7 mM respectively in marine founders (Elger, E. B., et al., J. Como. Physiol., B157:21 (1987)). 5 Net apical to basolateral water flux (Jv) was measured gravimetrically in 10 minute intervals using individual urinary bladder excised from winter flounder. […] The weight of the bladder was measured before and after the experimental period, wherein the experimental period comprised the period of time that the isolated bladder was exposed to test compound. The compound to be tested (e.g., test compound) was added to both serosal and mucosal solutions. The bladders were dried and weighted as described in Renfro et al. The difference in bladder weight prior to and after exposure to test compound is an indication of water reabsorption by the bladder.
Endocrinol. 127:1064–1071 (1990). […]

mammalian CaRs = target: T1, mammalian CaRs (Bos taurus, UniProt P35384); conditions: literature value; cited from earlier work
T1 sequence (P35384 20-1085): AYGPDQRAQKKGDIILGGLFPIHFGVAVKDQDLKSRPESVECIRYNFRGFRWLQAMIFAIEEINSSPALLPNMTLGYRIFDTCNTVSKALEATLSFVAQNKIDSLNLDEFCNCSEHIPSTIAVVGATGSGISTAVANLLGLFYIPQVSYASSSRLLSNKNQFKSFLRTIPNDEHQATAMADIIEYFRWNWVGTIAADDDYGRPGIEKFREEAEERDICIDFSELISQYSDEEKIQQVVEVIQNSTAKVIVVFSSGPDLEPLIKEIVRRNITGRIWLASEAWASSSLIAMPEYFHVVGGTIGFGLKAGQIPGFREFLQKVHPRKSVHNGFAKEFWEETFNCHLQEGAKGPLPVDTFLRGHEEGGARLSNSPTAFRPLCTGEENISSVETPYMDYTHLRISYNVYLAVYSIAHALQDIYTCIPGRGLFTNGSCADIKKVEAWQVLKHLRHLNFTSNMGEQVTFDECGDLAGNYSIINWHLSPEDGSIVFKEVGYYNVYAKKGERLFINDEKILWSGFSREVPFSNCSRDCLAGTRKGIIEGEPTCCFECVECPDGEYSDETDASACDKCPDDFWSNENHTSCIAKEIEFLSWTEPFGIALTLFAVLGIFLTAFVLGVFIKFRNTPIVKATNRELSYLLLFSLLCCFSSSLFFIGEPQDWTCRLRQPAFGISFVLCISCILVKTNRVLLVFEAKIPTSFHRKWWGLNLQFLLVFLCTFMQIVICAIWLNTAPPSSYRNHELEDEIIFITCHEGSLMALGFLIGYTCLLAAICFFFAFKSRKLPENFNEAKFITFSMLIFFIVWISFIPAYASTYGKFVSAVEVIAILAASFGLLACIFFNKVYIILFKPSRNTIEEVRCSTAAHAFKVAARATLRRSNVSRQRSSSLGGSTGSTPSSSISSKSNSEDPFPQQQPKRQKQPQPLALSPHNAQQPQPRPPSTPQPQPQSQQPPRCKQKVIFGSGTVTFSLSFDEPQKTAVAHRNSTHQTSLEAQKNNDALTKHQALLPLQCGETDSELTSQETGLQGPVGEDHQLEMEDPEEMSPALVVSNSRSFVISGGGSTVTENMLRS

[2] = extracellular NaCl 50 mM, read-out: EC50 for activation of SKCaR
[3] = extracellular NaCl 550 mM, read-out: EC50 for activation of SKCaR

Compound	EC50 (SKCaR (SEQ ID NO.: 2); [2]) [µM]	EC50 (SKCaR (SEQ ID NO.: 2); [3]) [µM]	inhibition of water reabsorption (Jv) ([1]; 100 μM agent) [%]	water reabsorption (Jv) ([1]; 100 μM agent) [μl/gm/hr]	inhibition of water reabsorption [1] [%]	IC50 [1] [µM]	reversibility of inhibitory effect on Jv [1]	also measured
[Ca+2] [Ca2+, calcium]	< 5000	~18000						effect on sensitivity of SKCaR to Mg2+ (SKCaR (SEQ ID NO.: 2); addition of 3 mM Ca2+, as a function of extracellular NaCl): increases the sensitivity; EC50 (SKCaR (SEQ ID NO.: 2); depending on the extracellular concentration of NaCl, read-out: half maximal activation of SKCaR): 1000 to 15000 µM
[Gd+3] [Gd^3+, gadolinium]			75±5	32±18	> 90	15	reversible	
[Mg+2] [Mg2+, magnesium]	< 20000	~80000						concentration range in which SKCaR is activated (SKCaR (SEQ ID NO.: 2); modulated by extracellular NaCl): 5 to 40 mM
[Cl-].[Na+] [NaCl]								effect on sensitivity of SKCaR to Ca2+ (SKCaR (SEQ ID NO.: 2); increasing concentrations of NaCl): reduce the sensitivity
NS(=O)(=O)c1cc2c(cc1Cl)NCNS2(=O)=O [hydrochlorothiazide]			86±2	18±7	> 85			
neomycin					> 50	150	reversible	inhibition of water reabsorption (Jv) ([1]; 200 μM agent): 52±4%; water reabsorption (Jv) ([1]; 200 μM agent): 63±10 μl/gm/hr; IC50 (mammalian CaRs): 50 µM and 60 to 70 µM
